These results are taken from ChEMBL document CHEMBL3045296, “Synthesis of aryloxyalkylamines as h5-HT1B agonists with potential analgesic activity” (Med Chem Res, 2009).

Series [1] has as its target 5-hydroxytryptamine receptor 1D (Homo sapiens, UniProt P28221). The experiment in a line: Binding affinity to Homo sapiens (human) 5HT1D receptor by radioligand binding assay.
The target in series [2] is 5-hydroxytryptamine receptor 1B (Homo sapiens, UniProt P28222). The experiment in a line: Binding affinity to Homo sapiens (human) 5HT1B receptor by radioligand binding assay.
Sequence of 5-hydroxytryptamine receptor 1B (P28222 whole entry): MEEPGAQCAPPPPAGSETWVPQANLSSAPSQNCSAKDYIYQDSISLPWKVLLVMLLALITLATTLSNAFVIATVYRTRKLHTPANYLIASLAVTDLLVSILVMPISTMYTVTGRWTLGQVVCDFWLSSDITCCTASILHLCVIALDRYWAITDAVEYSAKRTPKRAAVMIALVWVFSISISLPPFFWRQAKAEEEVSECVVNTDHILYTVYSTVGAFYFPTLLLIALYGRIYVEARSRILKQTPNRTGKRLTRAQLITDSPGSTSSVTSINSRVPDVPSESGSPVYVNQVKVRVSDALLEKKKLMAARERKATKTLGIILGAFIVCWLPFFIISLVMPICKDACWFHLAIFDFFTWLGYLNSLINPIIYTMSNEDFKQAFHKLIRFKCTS
In series [3] the test system is Mus musculus. The experiment in a line: Toxicity in Mus musculus (mouse) assessed as difficulties in respiration at 50 mg/kg, ip. Format: organism-based. Also noted: dose 50 mg/kg, route intraperitoneal. Particulars: in vivo.
Series [4] relates to Mus musculus. The experiment in a line: Toxicity in Mus musculus (mouse) assessed as epilepsy at 50 mg/kg, ip. It counts as organism-based. The note with it: in vivo. Also on record: dose 50 mg/kg, route intraperitoneal.
The subject of series [5] is Mus musculus. The experiment in a line: Toxicity in Mus musculus (mouse) assessed as protrusion of eyes at 50 mg/kg, ip. Also noted: dose 50 mg/kg, route intraperitoneal. The note with it: in vivo. It counts as organism-based.
For series [6], the system named is Mus musculus. The experiment in a line: Analgesic activity in Mus musculus (mouse) assessed as writhing response at 75 mg/kg, ip relative to control. Format: functional. Particulars: route intraperitoneal. A general note: In writhing tests, fewer writhes than in controls are read as antinociception.
The test system of series [7] is Mus musculus. The experiment in a line: Toxicity in Mus musculus (mouse) assessed as excitation at 50 mg/kg, ip. Particulars: in vivo. It counts as organism-based. Also on record: dose 50 mg/kg, route intraperitoneal.
Series [8] deals with Mus musculus. The experiment in a line: Toxicity in Mus musculus (mouse) assessed as tremors at 50 mg/kg, ip. It counts as organism-based. Also noted: dose 50 mg/kg, route intraperitoneal. Particulars: in vivo.
Series [9] relates to Mus musculus. The experiment in a line: Toxicity in Mus musculus (mouse) assessed as skeletal muscle incoordination at 50 mg/kg, ip. Particulars: in vivo. Format: organism-based, Muscle tissue. Also noted: dose 50 mg/kg, route intraperitoneal.
The test system of series [10] is Mus musculus. The experiment in a line: Toxicity in Mus musculus (mouse) assessed as irritability at 50 mg/kg, ip. Also on record: dose 50 mg/kg, route intraperitoneal. It counts as organism-based. The note with it: in vivo.
Series [11] deals with Mus musculus. The experiment in a line: Analgesic activity in Mus musculus (mouse) assessed as writhing response at 25 mg/kg, ip relative to control. Format: functional. The note with it: route intraperitoneal.
Series [12] concerns Mus musculus. The experiment in a line: Toxicity in Mus musculus (mouse) assessed as muscle twitching at 50 mg/kg, ip. Format: organism-based, Muscle tissue. Also noted: dose 50 mg/kg, route intraperitoneal. Particulars: in vivo.
For series [13], the system named is Mus musculus. The experiment in a line: Analgesic activity in Mus musculus (mouse) assessed as writhing response at 50 mg/kg, ip relative to control. It counts as functional. Particulars: route intraperitoneal.
The test system of series [14] is Mus musculus. The experiment in a line: Toxicity in Mus musculus (mouse) assessed as tail and hair erection at 50 mg/kg, ip. Format: organism-based. Also on record: dose 50 mg/kg, route intraperitoneal. Particulars: in vivo.
The subject of series [15] is Mus musculus. The experiment in a line: Analgesic activity in Mus musculus (mouse) assessed as writhing response at 100 mg/kg, ip relative to control. The note with it: route intraperitoneal. It counts as functional.
Series [16] has as its system Mus musculus. The experiment in a line: Toxicity in Mus musculus (mouse) assessed as difficulties in respiration at 20 mg/kg, ip. It counts as organism-based. Also noted: dose 20 mg/kg, route intraperitoneal. Particulars: in vivo.
The subject of series [17] is Mus musculus. The experiment in a line: Toxicity in Mus musculus (mouse) assessed as irritability at 20 mg/kg, ip. Format: organism-based. Particulars: in vivo. Also noted: dose 20 mg/kg, route intraperitoneal.
Series [18] relates to Mus musculus. The experiment in a line: Toxicity in Mus musculus (mouse) assessed as tremors at 20 mg/kg, ip. It counts as organism-based. Also noted: dose 20 mg/kg, route intraperitoneal. Particulars: in vivo.
Series [19] relates to Mus musculus. The experiment in a line: Toxicity in Mus musculus (mouse) assessed as muscle twitching at 20 mg/kg, ip. It counts as organism-based, Muscle tissue. Also noted: dose 20 mg/kg, route intraperitoneal. The note with it: in vivo.
Series [20] deals with Mus musculus. The experiment in a line: Toxicity in Mus musculus (mouse) assessed as tail and hair erection at 20 mg/kg, ip. The note with it: in vivo. Also on record: dose 20 mg/kg, route intraperitoneal. It counts as organism-based.
In series [21] the test system is Mus musculus. The experiment in a line: Toxicity in Mus musculus (mouse) assessed as protrusion of eyes at 20 mg/kg, ip. It counts as organism-based. Also on record: dose 20 mg/kg, route intraperitoneal. The note with it: in vivo.
Series [22] concerns Mus musculus. The experiment in a line: Toxicity in Mus musculus (mouse) assessed as skeletal muscle incoordination at 20 mg/kg, ip. Format: organism-based, Muscle tissue. Also on record: dose 20 mg/kg, route intraperitoneal. Particulars: in vivo.
Series [23] deals with Mus musculus. The experiment in a line: Analgesic activity in Mus musculus (mouse) assessed as writhing response at 20 mg/kg, ip relative to control. Particulars: route intraperitoneal. Format: functional.
Series [24] deals with Mus musculus. The experiment in a line: Toxicity in Mus musculus (mouse) assessed as epilepsy at 20 mg/kg, ip. Particulars: in vivo. Also on record: dose 20 mg/kg, route intraperitoneal. It counts as organism-based.
Series [25] has as its system Mus musculus. The experiment in a line: Toxicity in Mus musculus (mouse) assessed as excitation at 20 mg/kg, ip. Format: organism-based. Also on record: dose 20 mg/kg, route intraperitoneal. Particulars: in vivo.

Sequence of 5-hydroxytryptamine receptor 1D (P28221 whole entry): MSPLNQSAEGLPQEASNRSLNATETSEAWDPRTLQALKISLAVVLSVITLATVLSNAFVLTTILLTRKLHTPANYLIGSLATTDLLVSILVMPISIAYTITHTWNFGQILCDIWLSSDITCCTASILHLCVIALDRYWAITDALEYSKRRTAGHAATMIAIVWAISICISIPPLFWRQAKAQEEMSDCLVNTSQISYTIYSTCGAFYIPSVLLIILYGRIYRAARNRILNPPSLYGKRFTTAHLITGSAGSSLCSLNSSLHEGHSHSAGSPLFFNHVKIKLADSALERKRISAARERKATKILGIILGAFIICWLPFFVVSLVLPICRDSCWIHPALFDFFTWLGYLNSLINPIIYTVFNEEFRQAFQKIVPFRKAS

As to `CNC(C)COc1cccc(Oc2ccccc2)c1` (racemic), the values for the Ki in [1] and in series [2] were 393 nM and 752 nM, respectively.
On the same counts, the results for `CNC(C)COc1ccc(Br)cc1Br` (racemic) are 1120 nM and 2320 nM.
The like results for `CN1CCN([C@H](COc2cccc(Cl)c2Cl)c2ccccc2)CC1` were, in that order, 5460 nM and 912 nM.
`CNC(C)COc1c(Br)cccc1Br.O=C(O)C(=O)O` (racemic): the Activity result with Mus musculus [3] is recorded as “Toxic”; in the series with Mus musculus [4], “Toxic”; in the series with Mus musculus [5] it was “Toxic”; in the series on Mus musculus [6], 100%; with Mus musculus [7] it was “Toxic”; in the series on Mus musculus [8] it was “Toxic”. In addition, the Activity result is “Toxic” in the series with Mus musculus [9]; “Toxic” with Mus musculus [10]; 0% with Mus musculus [11]; “Toxic” in the series on Mus musculus [12]; 75% in the series on Mus musculus [13]; “Toxic” in the series with Mus musculus [14]. In addition, the values for the Ki in series [1] and in series [2] were 225 nM and 71.5 nM, respectively.
Take `CC(=O)Oc1ccccc1C(=O)O` [ASPIRIN]: the Activity in the series with Mus musculus [15] is 100%.
In the case of `CNCCOc1c(Br)cccc1Br.O=C(O)C(=O)O`, the Activity entry is on record as “Toxic” in the series with Mus musculus [3]; “Toxic” with Mus musculus [4]; “Toxic” in the series on Mus musculus [5]; 100% in the series on Mus musculus [6]; “Toxic” with Mus musculus [7]; “Toxic” with Mus musculus [8]. For the same compound, the Activity entry is recorded as “Toxic” in the series with Mus musculus [9]; “Toxic” in the series with Mus musculus [10]; 25% in the series on Mus musculus [11]; “Toxic” with Mus musculus [12]; 62.5% in the series on Mus musculus [13]; “Toxic” in the series with Mus musculus [14].
`CN1CCN(CCOc2ccc(Br)cc2Br)CC1`: the values for the Ki in series [1] and in [2] were > 10000 nM and 1460 nM, respectively.
Take `CN[C@H](COc1cccc(Cl)c1Cl)c1ccccc1`: in series [1], affinity was put at a Ki of 7790 nM.
As for `CNCCOc1cccc(Cl)c1Cl`, the Ki in [1] came to 2030 nM; in series [2] it was 36.4 nM.
`CNCCOc1cc(Cl)ccc1Cl`: the Ki in [1] came to 3820 nM; in [2] it was 3640 nM.
On the same counts, the results for `CN[C@@H](COc1cccc(Cl)c1Cl)c1ccccc1` are 6290 nM and > 10000 nM.
The like results for `CNCCOc1ccc(Br)cc1Br` were, in that order, 1240 nM and 1250 nM.
For `CNC(C)COc1ccc(Cl)cc1Cl` (racemic), the Ki came out at 2870 nM in series [1] and 4200 nM in [2].
On the same counts, the results for `CNC(C)COc1cccc(Cl)c1Cl` (racemic) are 599 nM and 2480 nM.
The like results for `CN1CCN([C@@H](COc2cccc(Cl)c2Cl)c2ccccc2)CC1` were, in that order, 1490 nM and 833 nM.
On the same counts, the results for `CNCCOc1ccc(Cl)cc1Cl` are 975 nM and 2750 nM.
As for `CNC(C)COc1cc(Cl)ccc1Cl.O=C(O)C(=O)O` (racemic), the Activity result in the series on Mus musculus [16], in the series on Mus musculus [17], with Mus musculus [18], in the series with Mus musculus [19], with Mus musculus [20] and in the series on Mus musculus [21] was “Toxic” each time. Moreover, the Activity entry in the series with Mus musculus [22] is “Toxic”; in the series with Mus musculus [23] it was 66%; in the series on Mus musculus [24] it was “Toxic”; with Mus musculus [25], “Toxic”. Further, the Ki amounted to 5400 nM in [1] and 6690 nM in [2].

In general, Ki refers to the equilibrium dissociation constant of an inhibitor or competing ligand from its target. High values mean weaker binding, low ones tighter binding.
